Measurements published in BigSolDB 2.1.

Nc1ccc(S(=O)(=O)O)cc1
solubility (mole fraction)
Conditions	in acetic acid	in acetone	in acetonitrile	in ethanol	in formic acid	in isopropanol	in methanol
278.15 K	–	0.000291	0.000132	0.000213	0.00106	0.000253	0.000247
283.15 K	–	0.000296	0.000144	0.000231	0.00116	0.00027	0.000263
288.15 K	0.00204	0.000303	0.000165	0.000251	0.00129	0.000303	0.000284
293.15 K	0.00217	0.00031	0.000178	0.000264	0.00139	0.000318	0.000299
298.15 K	0.00227	0.000317	0.000195	0.000284	0.00152	0.000348	0.000318
303.15 K	0.0024	0.000324	0.000214	0.0003	0.00166	0.000373	0.000342
308.15 K	0.00252	0.000332	0.000235	0.000323	0.00181	0.000403	0.000362
313.15 K	0.00264	0.000338	0.000255	0.000338	0.00196	0.000429	0.000383
318.15 K	0.00277	0.000346	0.000274	0.000363	0.00213	0.000461	0.000403
323.15 K	0.00291	0.000353	0.000301	0.000385	0.00231	0.000494	0.000432
328.15 K	0.00304	0.00036	0.000324	0.000403	0.00247	0.000525	0.00045
